Reference: ChEMBL document CHEMBL6134812, “A thiocoumarin based self-reporting sulfide prodrug strategy with a favorable safety profile” (Eur J Med Chem, 2025)
Calls of active or inactive are those of the source. No cut-off for these calls is given here.

Tests used:
Liver carboxylesterase [1] = molecular target: T1, Liver carboxylesterase (Sus scrofa, UniProt Q29550); test: Prodrug release assessed as pig liver esterase-mediated H2S and fluorescent coumarin release by measuring half life of drug at 500 uM by HPLC analysis; assay type: ADME
T1 sequence (Q29550 whole entry): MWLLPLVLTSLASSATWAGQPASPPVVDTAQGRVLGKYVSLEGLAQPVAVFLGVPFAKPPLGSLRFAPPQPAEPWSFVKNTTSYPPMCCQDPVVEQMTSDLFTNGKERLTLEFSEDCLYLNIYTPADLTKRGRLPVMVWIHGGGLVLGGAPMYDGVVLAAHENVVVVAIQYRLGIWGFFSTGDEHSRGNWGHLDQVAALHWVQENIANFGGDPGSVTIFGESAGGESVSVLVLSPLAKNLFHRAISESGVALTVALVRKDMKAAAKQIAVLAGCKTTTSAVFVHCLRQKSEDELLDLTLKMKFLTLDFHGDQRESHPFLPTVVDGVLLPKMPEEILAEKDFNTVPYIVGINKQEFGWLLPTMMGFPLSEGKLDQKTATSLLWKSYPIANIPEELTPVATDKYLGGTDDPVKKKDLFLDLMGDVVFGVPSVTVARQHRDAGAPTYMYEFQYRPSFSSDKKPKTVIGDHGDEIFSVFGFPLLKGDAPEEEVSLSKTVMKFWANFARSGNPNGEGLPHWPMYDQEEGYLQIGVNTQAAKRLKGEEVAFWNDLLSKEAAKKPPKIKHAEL

[2] = Prodrug release in Sprague-Dawley rat plasma assessed as fluorescence intensity at 500 uM by fluorescence based analysis; assay type: ADME, cell-free
Mus musculus [3] = test: Protection against cerebral infarction in C57BL/6JNifdc mouse tMCAO model assessed as decrease in infarction area in brain at 100 umol/kg, iv measured after 24 hrs by TTC staining based analysis; assay type: functional, organism-based; conditions: dose 100.0 µmol/kg
Mus musculus [4] = test: Anticoagulant activity in C57BL/6J mouse assessed as tail bleeding time at 40 mg/kg, ip and measured for 40 mins; assay type: functional
[5] = Prodrug release in Sprague-Dawley rat plasma assessed as increase in fluorescence intensity by measuring half life at 500 uM by fluorescence based analysis; assay type: ADME, cell-free
[6] = Drug uptake in C57BL/6J mouse kidney assessed as increase in fluorescence intensity at 100 umol/kg, iv measured after 10 mins by Ex vivo fluorescent imaging analysis; assay type: ADME, organism-based; conditions: dose 100 µmol/kg
[7] = Drug uptake in C57BL/6J mouse brain assessed as increase in fluorescence intensity at 100 umol/kg, iv measured after 10 mins by Ex vivo fluorescent imaging analysis; assay type: ADME, organism-based; conditions: dose 100 µmol/kg
[8] = Drug uptake in C57BL/6J mouse liver assessed as increase in fluorescence intensity at 100 umol/kg, iv measured after 10 mins by Ex vivo fluorescent imaging analysis; assay type: ADME, organism-based; conditions: dose 100 µmol/kg
Mus musculus [9] = test: Protection against cerebral infarction in C57BL/6JNifdc mouse tMCAO model assessed as decrease in MDA level in serum at 100 umol/kg, iv measured per mg protein after 24 hrs; assay type: functional; conditions: dose 100 µmol/kg
Mus musculus [10] = test: Protection against cerebral infarction in C57BL/6JNifdc mouse tMCAO model assessed as decrease in LDH level in brain at 100 umol/kg, iv measured after 24 hrs; assay type: functional, organism-based; conditions: dose 100.0 µmol/kg
Mus musculus [11] = test: Anticoagulant activity in C57BL/6J mouse assessed as prothrombin time at 40 mg/kg, ip; assay type: functional, organism-based
Mus musculus [12] = test: Anticoagulant activity in C57BL/6J mouse assessed as activated partial thromboplastin time at 40 mg/kg, ip; assay type: functional, organism-based
[13] = Acute liver toxicity in C57BL/6J mouse assessed as ALT level in serum at 869 mg/kg, ip measured after 24 hrs; assay type: organism-based; conditions: in vivo
[14] = Acute liver toxicity in C57BL/6J mouse assessed as AST level in serum at 869 mg/kg, ip measured after 24 hrs; assay type: organism-based; conditions: in vivo
[15] = Acute liver toxicity in C57BL/6J mouse assessed as ALP level in serum at 869 mg/kg, ip measured after 24 hrs; assay type: organism-based; conditions: in vivo
[16] = Acute liver toxicity in C57BL/6J mouse assessed as gamma-GT level in liver at 869 mg/kg, ip measured after 24 hrs; assay type: organism-based; conditions: in vivo
Mus musculus [17] = test: Acute renal toxicity in C57BL/6J mouse assessed as albumin level in serum at 869 mg/kg, ip measured after 24 hrs; assay type: organism-based; conditions: in vivo
Mus musculus [18] = test: Acute renal toxicity in C57BL/6J mouse assessed as GSH level in kidney at 869 mg/kg, ip measured after 24 hrs; assay type: organism-based; conditions: in vivo
[19] = Acute toxicity in C57BL/6J mouse assessed as total protein level at 869 mg/kg, ip measured after 24 hrs; assay type: organism-based; conditions: in vivo
[20] = Acute toxicity in C57BL/6J mouse assessed as total bilirubin level in serum at 869 mg/kg, ip measured after 24 hrs; assay type: organism-based; conditions: in vivo
[21] = Acute toxicity in C57BL/6J mouse assessed as creatinine level in serum at 869 mg/kg, ip measured after 24 hrs; assay type: organism-based; conditions: in vivo
[22] = Acute toxicity in C57BL/6J mouse assessed as uric acid level in serum at 869 mg/kg, ip measured after 24 hrs; assay type: organism-based; conditions: in vivo
[23] = Acute toxicity in C57BL/6J mouse assessed as SOD level at 869 mg/kg, ip measured after 24 hrs; assay type: organism-based; conditions: in vivo
[24] = Acute toxicity in C57BL/6J mouse assessed as morphological changes in liver at 869 mg/kg, ip measured after 24 hrs by Hematoxylin-Eosin staining based analysis; assay type: organism-based; conditions: in vivo
[25] = Acute toxicity in C57BL/6J mouse assessed as morphological changes in kidney at 869 mg/kg, ip measured after 24 hrs by Hematoxylin-Eosin staining based analysis; assay type: organism-based; conditions: in vivo
[26] = Acute toxicity in C57BL/6J mouse assessed as visible bleeding in cerebral area at 869 mg/kg, ip measured after 24 hrs; assay type: organism-based; conditions: in vivo
Liver carboxylesterase [27] = molecular target: T1, Liver carboxylesterase; test: Prodrug release assessed as pig liver esterase-mediated H2S and fluorescent coumarin release by measuring half life of drug at 500 uM by fluorescence based analysis; assay type: ADME
Liver carboxylesterase [28] = molecular target: T1, Liver carboxylesterase; test: Prodrug release assessed as pig liver esterase-mediated H2S and fluorescent coumarin release at 500 uM incubated for 24 hrs in presence of esterase inhibitor by HPLC analysis; assay type: ADME; conditions: isolated protein
Liver carboxylesterase [29] = molecular target: T1, Liver carboxylesterase; test: Prodrug release assessed as pig liver esterase-mediated H2S and coumarin release by measuring H2S concentration at 500 uM measured after 12 hrs by methylene blue method; assay type: ADME; conditions: isolated protein
[30] = Prodrug release in Sprague-Dawley rat plasma assessed as fluorescence intensity at 500 uM measured after 24 hrs in presence of esterase inhibitor by fluorescence based analysis; assay type: ADME, cell-free
[31] = Prodrug release in C57BL/6J mouse kidney assessed as H2S generation by measuring increase in fluorescence intensity at 100 umol/kg, iv measured after 6 hrs by Ex vivo fluorescent imaging analysis; assay type: ADME, organism-based; conditions: dose 100 µmol/kg
[32] = Prodrug release in C57BL/6J mouse brain assessed as H2S generation by measuring increase in fluorescence intensity at 100 umol/kg, iv measured after 6 hrs by Ex vivo fluorescent imaging analysis; assay type: ADME, organism-based; conditions: dose 100 µmol/kg
[33] = Prodrug release in C57BL/6J mouse liver assessed as H2S generation by measuring increase in fluorescence intensity at 100 umol/kg, iv measured after 6 hrs by Ex vivo fluorescent imaging analysis; assay type: ADME, organism-based; conditions: dose 100 µmol/kg
[34] = Prodrug release in C57BL/6J mouse kidney assessed as increase in fluorescence intensity at 100 umol/kg, iv measured after 6 hrs by fluorescence based analysis; assay type: ADME, organism-based; conditions: in vivo, dose 100 µmol/kg
[35] = Prodrug release in C57BL/6J mouse brain assessed as increase in fluorescence intensity at 100 umol/kg, iv measured after 6 hrs by fluorescence based analysis; assay type: ADME, organism-based; conditions: in vivo, dose 100 µmol/kg
[36] = Prodrug release in C57BL/6J mouse liver assessed as increase in fluorescence intensity at 100 umol/kg, iv measured after 6 hrs by fluorescence based analysis; assay type: ADME, organism-based; conditions: in vivo, dose 100 µmol/kg

S=c1ccc2ccccc2o1
t1/2 (Liver carboxylesterase [1]): 94.44 h | Drug metabolism [2]: metabolite_notdetected

O=c1ccc2cc3ccoc3cc2o1 [PSORALEN]
Activity (Mus musculus [3]): Active; Slight Decrease Compared To Thio-Coumarins (Sulfide Prodrugs) | Time (Mus musculus [4]): 22.24 min

CCN(CC)c1ccc2c(C)cc(=O)oc2c1
Activity (Mus musculus [3]): Active; Slight Decrease Compared To Thio-Coumarins (Sulfide Prodrugs) | Time (Mus musculus [4]): 9.58 min

Nc1ccc2c(C(F)(F)F)cc(=S)oc2c1
t1/2 (Liver carboxylesterase [1]): > 120 h | t1/2 [5]: 9.43 h

Cc1cc(=S)oc2cc3cc(O)ccc3cc12
t1/2 (Liver carboxylesterase [1]): > 120 h | t1/2 [5]: 52.4 h

Cc1cc(=O)oc2cc(O)ccc12 [HYMECROMONE]
Drug uptake [6]: Active | Drug uptake [7]: Active | Drug uptake [8]: Active | Activity (Mus musculus [3]): Active; Slight Decrease Compared To Thio-Coumarins (Sulfide Prodrugs) | Time (Mus musculus [4]): 13.99 min

Cc1cc(=S)oc2cc(N(C)C)ccc12
t1/2 (Liver carboxylesterase [1]): > 120 h | t1/2 [5]: 36.22 h

CCN(CC)c1ccc2c(C)cc(=S)oc2c1
t1/2 (Liver carboxylesterase [1]): > 120 h | Activity (Mus musculus [3]): Active | Activity (Mus musculus [9]): 7.4 nmol | Activity (Mus musculus [10]): Active | Time (Mus musculus [4]): 16.6 min | Activity (Mus musculus [11]): Active; Retained The Anticoagulant Activity Of Coumarins Observed | Activity (Mus musculus [12]): Active; Retained The Anticoagulant Activity Of Coumarins Observed

CCN(CC)c1ccc2c(CN(C)O)cc(=S)oc2c1
t1/2 (Liver carboxylesterase [1]): > 120 h | t1/2 [5]: 5.78 h

COc1ccc2cc3c(C)cc(=S)oc3cc2c1
t1/2 (Liver carboxylesterase [1]): > 120 h | t1/2 [5]: 9.06 h

S=c1ccc2cc3ccoc3cc2o1
t1/2 (Liver carboxylesterase [1]): 62.89 h | t1/2 [5]: 3.95 h | Activity (Mus musculus [3]): Active | Activity (Mus musculus [9]): 14.14 nmol | Activity (Mus musculus [10]): Active | Activity [13]: Non-toxic | Activity [14]: Non-toxic | Activity [15]: Non-toxic | Activity [16]: Non-toxic | Activity (Mus musculus [17]): Non-toxic | Activity (Mus musculus [18]): Non-toxic | Activity [19]: Non-toxic | Activity [20]: Non-toxic | Activity [21]: Non-toxic | Activity [22]: Non-toxic | Activity [23]: Non-toxic | Activity [24]: Non-toxic | Activity [25]: Non-toxic | Activity [26]: Non-toxic | Time (Mus musculus [4]): 16.52 min | Activity (Mus musculus [11]): Active; Retained The Anticoagulant Activity Of Coumarins Observed | Activity (Mus musculus [12]): Active; Retained The Anticoagulant Activity Of Coumarins Observed

Cc1cc(=S)oc2cc(O)ccc12
t1/2 (Liver carboxylesterase [27]): 50.4 h | t1/2 (Liver carboxylesterase [1]): 57.59 h | Drug metabolism (Liver carboxylesterase [28]): metabolite_notdetected | Drug metabolism (Liver carboxylesterase [29]): 31.46 µM | t1/2 [5]: 2.52 h | Drug metabolism [30]: metabolite_notdetected | Drug metabolism [31]: metabolite_detected | Drug metabolism [32]: metabolite_detected | Drug metabolism [33]: metabolite_detected | Drug metabolism [34]: metabolite_detected | Drug metabolism [35]: metabolite_detected | Drug metabolism [36]: metabolite_detected | Activity (Mus musculus [3]): Active | Activity (Mus musculus [9]): 7.59 nmol | Activity (Mus musculus [10]): Active | Time (Mus musculus [4]): 10.84 min | Activity (Mus musculus [11]): Active; Retained The Anticoagulant Activity Of Coumarins Observed | Activity (Mus musculus [12]): Active; Retained The Anticoagulant Activity Of Coumarins Observed

S=c1ccc2ccc3occc3c2o1
t1/2 (Liver carboxylesterase [1]): 66.71 h | Drug metabolism [2]: metabolite_notdetected
